Laboratory results published in US6559139B1, “Combination chemotherapy” (University of Pittsburgh of the Commonwealth System of …, priority 1997, dated 2003).

How the values were obtained:
[1] = test system: EGF, PDGF, and IGF1 growth factor receptors; assay: Western Blot of growth factor receptors in SCC cells; type: cell-based; details: 10 nM 1,25D3; vs untreated cells
Procedure: (§1) SCC cells were treated in vitro with 10 nM 1,25D3, and untreated cells served as a control. The level of phosphorylated MAPK was assessed at 24 and 48 hours post treatment. Using Western Blot analysis, the amounts of MAPK, MEK (the kinase responsible for phosphorylating MAPK), MKP-1 (a MAPK-specific phosphatase), and growth factor receptors (EGF, PDGF, and IGF1 growth factor receptors) were assessed as well. Additionally, the activity level of MEK was assessed by quantitative in vitro kinase assays.

[2] = serum calcium levels in normal mice treated with 1,25D3 with or without zoledronate
Procedure: Normal C3H/HeJ mice were pretreated with 10 μg/kg body weight zoledronate and then treated with 0.25 μg 1,25D3 once a day for three days. Control animals received 1,25D3 alone, and one group of animals received only zoledronate. Following the last 1,25D3 treatment, blood was collected at 0, 24 and 48 hours from each mouse, and the serum calcium levels were measured.

SCCVII/SF tumor [3] = assay: tumor regrowth assay (delay of tumor growth); type: in vivo, C3H/HeJ mice; details: for fractional tumor volume: vs either agent alone; for Tumor Regrowth Delay: mean±SD of the difference in time for treated and control tumors to reach 4× pretreatment size, Ro23-7553 continuous, cisplatin 6 mg/kg i.p.
Procedure: SCCVII/SF tumor cells (5×10^5) were inoculated s.c. into the flank of the leg of C3H/HeJ mice. On day 9 post implantation, as the tumors were palpable (approximately 5×5 mm), animals were randomized for treatment with low dose i.p. […] After 7 days, 6 mg/kg body weight cytotoxic agent was injected i.p. Control animals received either treatment alone or no treatment. Control (no treatment) animals were given injection of vehicle (PBS) alone or sham pumps were implanted. Tumor growth was assessed by measuring the tumor diameter with calipers three times weekly. […] Post-treatment volumes were expressed as a fraction of pretreatment volume at the time of initial treatment. Tumor regrowth delay was calculated as the mean±standard deviation of the difference in time for treated and control tumor volumes to reach 4 times the pretreatment volume.

MEK [4] = assay: Western Blot of MEK protein in SCC cells; type: cell-based; details: 10 nM 1,25D3; vs untreated cells
Procedure: as §1

SCCVII/SF tumor [5] = assay: in vivo excision clonogenic tumor cell survival assay; parameters: species or system C3H/HeJ mice; details: for enhancement of clonogenic cell kill: p<0.001 ANOVA
Procedure: The effect of 1,25D3 or Ro23-7553 alone and/or in combination with various cytotoxic agents on tumor cells in vivo was determined by a modification of the in vivo excision clonogenic tumor cell survival assay (Johnson et al., Cancer Chemother. Pharmacol., 32, 339-46 (1993)). Briefly, SCCVII/SF tumor bearing animals at 14 days post implantation were treated i.p. for 3 days with 1,25D3 or Ro23-7553 at either 0.5 mg/kg body weight/day or at varying doses of 0.03125-0.5 mg/kg body weight/day. […] After 24 hours, aliquots of minced tumor were enzymatically dissociated for 60 min at room temperature with a mixture of type I collagenase (37.5 mg/ml), DNAse (55 mg/ml) and EDTA (1%). Viable tumor cells (determined by trypan blue staining) were then plated at various dilutions. After 7 days incubation, colonies were counted, and numbers of clonogenic cells per gram of tumor were counted. The mean±standard deviation (SD) cell yield, cloning efficiency, and number of clonogenic cells for control (no treatment) tumors (n=40) averaged 139.4±38.2×10^6 viable tumor cells/g tumor, 27.0±0.56%, and 37.5±13.3×10^6 clonogenic tumor cells/g tumor, respectively. The surviving fraction per gram of tumor is defined as the number of clonogenic tumor cells per gram of treated tumor divided by the number of clonogenic tumor cells per gram of control (untreated) tumor. This assay is an accurate measure of in vivo anti-tumor activity; a surviving fraction less than 0.1 correlates with an actual decrease in tumor volume and an increase in tumor regrowth delay (Braunschweiger et al., Cancer Res., 48, 6011-16 (1988); Braunschweiger et al., Cancer Res., 51, 5454-60 (1991)).

SCCVII/SF cells [6] = details: 24 hr, 48 hr and 7 day incubation times; cited from earlier work
MAPK = assay: Western Blot of phosphorylated MAPK and MAPK in SCC cells; type: cell-based; details: 10 nM 1,25D3, vs untreated cells
Procedure: as §1

MEK [7] = assay: quantitative in vitro kinase assay of MEK activity; type: cell-based; details: 10 nM 1,25D3; vs untreated cells
Procedure: as §1

SCCVII/SF cells [8] = assay: in vitro clonogenic assay; type: cell-based, murine; details: for enhancement of clonogenic cell kill: p<0.001 ANOVA
Procedure: The in vitro cytotoxicity of drug on tumor cells was determined via the in vitro clonogenic assay (McElwain et al., Mol. Cell. Diff., 3, 31-50 (1995)) with minor modifications as described herein. Briefly, murine SCCVII/SF cells were pre-treated with either 2 nM or 4 nM 1,25D3 or Ro23-7553. […] After 48 hours incubation with 1,25D3 or Ro23-7553, cells were treated for 2 hours with varying concentrations of cytotoxic agent, washed with RPMI 1640 plus FCS, and plated in various dilutions in 6-well tissue culture plates. Following a 7 day incubation at 37° C. in 5% CO2, monolayers were washed with saline, fixed with 100% methanol, and stained with 10% Giemsa; colonies were counted under light microscopy. The surviving fraction was calculated by dividing the cloning efficiency of treated cells by the cloning efficiency of untreated controls.

[9] = hypercalcemia in treated SCCVII/SF tumor-bearing animals; type: in vivo, C3H/HeJ mice
[10] = test system: MKP-1 (a MAPK-specific phosphatase); assay: Western Blot of MKP-1 in SCC cells; type: cell-based; details: 10 nM 1,25D3; vs untreated cells
Procedure: as §1

[11] = clinical carboplatin / 1,25D3 schedule: carboplatin AUC and myelosuppression; type: in vivo, human; details: for mean AUC of carboplatin: dose calculated to achieve AUC=5, ±1.3
Procedure: Patients with malignant tumors were subject to a treatment regimen involving carboplatin and 1,25D3, but 48 hours prior to treatment, each patient was placed on a low calcium diet (250-300 mg/48 hr) and maintained on that diet for at least 7 days.
According to this regimen, each cycle lasts four weeks. For successive cycles, the dosage of 1,25D3 is increased by 30%. For the first two cycles, the patients were divided into two groups as follows:
Group 1. On day 1, this group of patients was given carboplatin (intravenously as a 30-minute infusion in 100 ml of carrier) at a dose calculated to achieve AUC=5. 24 hours later, a plasma sample was taken to determine carboplatin AUC, and the patients were placed on a three-day regimen of subcutaneous 1,25D3 per the schedule indicated in Table 2.
Group 2. On day 1, this group of patients was placed on a three-day regimen of subcutaneous 1,25D3. On day 3, the patients were given carboplatin at a dose calculated to achieve AUC=5. 24 hours later, a plasma sample was taken to determine carboplatin AUC.
Following the first cycle, the groups switched between pretreatment and post treatment. For the third and subsequent cycles in this treatment, the patients were placed on a three-day regimen of subcutaneous 1,25D3. On day 3, the patients were given carboplatin. at a dose calculated to achieve AUC=5. 24 hours later, a plasma sample was taken to determine carboplatin AUC.
Following the first two cycles, patients were assessed to determine the effect on carboplatin AUC by pretreatment vs. post treatment with 1,25D3.

## C=C1/C(=C\C=C2/CCC[C@]3(C)[C@@H]([C@H](C)CCCC(C)(C)O)CC[C@@H]23)C[C@@H](O)C[C@@H]1O [1,25D3, 1,25-dihydroxycholecalciferol]
[1]
  amounts of EGF, PDGF, and IGF1 growth factor receptors: significantly higher amounts
[2]; 24 hours after last 1,25D3 treatment (0.25 μg once a day, three days)
  serum calcium levels: 17.2 ± 1.1 mg/dL
[2]; 48 hours after last 1,25D3 treatment (0.25 μg once a day, three days)
  serum calcium levels: 16.5 ± 1.1 mg/dL
SCCVII/SF tumor [3]; 0.2 μg/mouse 1,25D3 continuously for two to eight days, then paclitaxel 40 mg/kg i.p.
  fractional tumor volume: significant decrease in fractional tumor volume
MEK [4]
  amount of MEK protein: slightly less MEK protein
SCCVII/SF tumor [5]; 1,25D3 0.2 μg/day i.p. 3 days, varying doses of paclitaxel on day 3, vs paclitaxel alone
  enhancement of clonogenic cell kill: significant enhancement of clonogenic cell kill
SCCVII/SF tumor [5]; 1,25D3 0.5 mg/kg body weight/day i.p. 3 days, carboplatin 25-100 mg/kg on day 3, vs either alone
  enhancement of clonogenic cell kill: significant enhancement of clonogenic cell kill
SCCVII/SF tumor [5]; 1,25D3 varying doses i.p. 3 days, carboplatin 50 mg/kg on day 3, vs carboplatin alone
  enhancement of clonogenic cell kill: significant enhancement of clonogenic cell even at the lowest doses of 1,25D3
SCCVII/SF cells [6]
  anti-proliferative effects: anti-proliferative effects are observed
MAPK; 24 and 48 hours
  level of phosphorylated MAPK: less phosphorylated MAPK
MAPK
  amount of MAPK protein: not affected
MEK [7]
  MEK activity profile: not significantly different
SCCVII/SF cells [8]; concurrent administration of 1,25D3 and paclitaxel
  enhancement of clonogenic cell kill over paclitaxel alone: did not result in an enhancement of clonogenic cell kill
SCCVII/SF cells [8]; pretreatment with 2 nM 1,25D3 for 48 hours, then carboplatin, vs carboplatin alone or concurrent
  enhancement of clonogenic cell kill: significantly enhanced clonogenic cell kill
SCCVII/SF cells [8]; pretreatment with 1,25D3, then paclitaxel
  enhancement of clonogenic cell kill: significantly enhanced clonogenic cell kill
[9]; 1,25D3 0.2 μg/day 3 days with paclitaxel
  hypercalcemia: No animals became hypercalcemic
[9]; any of the 1,25D3 doses tested, with carboplatin 50 mg/kg
  hypercalcemia: No animals became hypercalcemic
[10]
  amount of MKP-1: higher amounts of MKP-1

## N.N.[Cl][Pt][Cl] [Cisplatin, cisplatin]
SCCVII/SF tumor [3]
  Tumor Regrowth Delay: 4.4 ± 0.3

## C=C1/C(=C\C=C2/CCC[C@]3(C)C([C@H](C)CC#CC(C)(C)O)=CC[C@@H]23)C[C@@H](O)C[C@@H]1O [Ro23-7553, 1,25-dihydroxy-16-ene-23-yne-cholecalciferol]
SCCVII/SF tumor [3]; Ro23-7553 administered continuously, then cisplatin 6 mg/kg i.p., p<0.001 ANOVA
  fractional tumor volume: significant decrease in fractional tumor volume
SCCVII/SF tumor [3]
  Tumor Regrowth Delay: 1.8 ± 0.8
SCCVII/SF tumor [5]; Ro23-7553 0.5 mg/kg body weight/day i.p. 3 days, varying doses of cisplatin on day 3, vs cisplatin or Ro23-7553 alone
  enhancement of clonogenic cell kill: significant enhancement of clonogenic cell kill
SCCVII/SF tumor [5]; Ro23-7553 0.03125-0.5 mg/kg body weight/day 3 days, cisplatin 6 mg/kg on day 3, vs either alone, p<0.01 ANOVA
  enhancement of cisplatin-mediated tumor cell kill: significantly enhancing cisplatin-mediated tumor cell kill even at the lowest doses tested
SCCVII/SF cells [6]
  anti-proliferative effects: anti-proliferative effects are observed
SCCVII/SF cells [8]; pretreatment with 2 nM and 4 nM Ro23-7553, then 0.2-0.8 μg/ml cisplatin, vs cisplatin alone or concurrent administration
  enhancement of clonogenic cell kill: significantly enhanced clonogenic cell kill
[9]; any of the Ro23-7553 doses (0.03125-0.5 mg/kg/day, 3 days) with cisplatin
  hypercalcemia: No animals in either experimental approach became hypercalcemic

## N.N.O=C([O-])C1(C(=O)[O-])CCC1.[Pt+2] [carboplatin]
[11]; carboplatin D1
  mean AUC of carboplatin: 7800 ng·h/mL
[11]; carboplatin D3
  mean AUC of carboplatin: 6700 ng·h/mL
[11]; carboplatin followed by adjunctive 1,25D3, each patient
  myleosuppression: consistently less
[11]; each patient, first two cycles
  AUC of carboplatin when pretreated with 1,25D3 vs carboplatin given first: higher in each patient

## O=P(O)(O)C(O)(Cn1ccnc1)P(=O)(O)O [zoledronate]
[2]; vs control animals (1,25D3 alone)
  dehydration, piloerection, and cachexia attributable to hypercalcemia: less dehydration, piloerection, and cachexia
